Laboratory results from US6653306B1, “Epoxy-steroidal aldosterone antagonist and angiotensin II antagonist combination therapy” (G.D. Searle & Co., priority 1995, dated 2003).

How the values were obtained:
[1] = test system: pressor response to AII; assay: Assay C: In vivo intragastric pressor assay response for AII antagonists; set-up: species or system rat; details: intragastric, or intraduodenal for examples listed; for inhibition at 3 mg/kg / Assay C Duration: dose 3 mg/kg
Description: Assay C: In Vivo Intragastric Pressor Assay Response for AII Antagonists
Male Sprague-Dawley rats weighing 225-300 grams were anesthetized with methohexital (30 mg/kg, i.p.) and catheters were implanted into the femoral artery and vein. The catheters were tunneled subcutaneously to exit dorsally, posterior to the head and between the scapulae. The catheters were filled with heparin (1000 units/ml of saline). The rats were returned to their cage and allowed regular rat chow and water ad libitum. After full recovery from surgery (3-4 days), rats were placed in Lucite holders and the arterial line was connected to a pressure transducer. Arterial pressure was recorded on a Gould polygraph (mmHg). Angiotensin II was administered as a 30 ng/kg bolus via the venous catheter delivered in a 50 μl volume with a 0.2 ml saline flush. The pressor response in mm Hg was measured by the differer.-:e from pre-injection arterial pressure to the maximum pressure achieved. The AII injection was repeated every 10 minutes until three consecutive injections yielded responses within 4 mmHg of each other. These three responses were then averaged and represented the control response to AII. The test compound was suspended in 0.5% methylcellulose in water and was administered by gavage. The volume administered was 2 ml/kg body weight. The standard dose was 3 mg/kg. Angiotensin II bolus injections were given at 30, 45, 60, 75, 120, 150, and 180 minutes after gavage. The pressor response to AII was measured at each time point. The rats were then returned to their cage for future testing. A minimum of 3 days was allowed between tests. Percent inhibition was calculated for each time point following gavage by the following formula:
[(Control Response—Response at time point)/Control Response]×100.

[2] = biological target: angiotensin II AT1 receptor; assay: Assay A: Angiotensin II binding activity (125I-AII displacement, rat uterine membrane preparation)
Description: Assay A: Antiotensin II Binding Activity
Compounds of the invention were tested for ability to bind to the smooth muscle angiotensin II receptor using a rat uterine membrane preparation. […] Rat uterine membranes were prepared from fresh tissue. All procedures were carried out at 4° C. Uteri were stripped of fat and homogenized in phosphate-buffered saline at pH 7.4 containing 5 mM EDTA. The homogenate was centrifuged at 1500×g for 20 min., and the supernatant was recentrifuged at 100,000×g for 60 min. The pellet was resuspended in buffer consisting of 2 mM EDTA and 50 mM Tris-HCl (pH 7.5) to a final protein concentration of 4 mg/ml. […] The reaction was initiated by the addition of membrane protein and the mixture was incubated at 25° C. for 60 min. The incubation was terminated with ice-cold 50 mM Tris-HCl (pH 7.5) and the mixture was filtered to separate membrane-bound labelled peptide from the free ligand. The incubation tube and filter were washed with ice-cold buffer. Filters were assayed for radioactivity in a Micromedic gamma counter.
Nonspecific binding was defined as binding in the presence of 10 μM of unlabelled AII. Specific binding was calculated as total binding minus nonspecific binding. […] Binding data were analyzed by a nonlinear least-squares curve fitting program.

SMILES	Assay C Inhibition ([1]; dose cell empty (dose not given)) [%]	IC50 [2] [nM]	inhibition at 3 mg/kg ([1]; Rattus norvegicus) [%]	Assay C Duration [1] [min]	inhibition at 10 mg/kg ([1]; Rattus norvegicus) [%]	inhibition at 30 mg/kg ([1]; Rattus norvegicus) [%]	inhibition at 100 mg/kg ([1]; Rattus norvegicus, dose 100 mg/kg) [%]
CCCCc1nn(CC(=O)c2ccccc2)c(=O)n1Cc1ccc(-c2ccccc2-c2nn[nH]n2)cc1 [Compound 82]	20	7.9					
CCCCn1nc(CCc2cccs2)nc1Cc1ccc(-c2ccccc2-c2nnn[nH]2)nc1 [Compound 153]		13	25	>180			
CCCCn1nc(C(O)CCC)nc1Cc1ccc(-c2ccccc2-c2nnn[nH]2)nc1 (stereo not drawn) [Compound 159]		21	10	150			
CCCCn1nc(C(F)(F)CCC)nc1Cc1ccc(-c2ccccc2-c2nnn[nH]2)nc1 [Compound 170]		26	40	>180			
CCCCn1nc(C(=O)N(C)C(C)(C)C)nc1Cc1ccc(-c2ccccc2-c2nnn[nH]2)nc1 [Compound 171]		28	0	0			
CCCCn1nc(C(OC)OC)nc1Cc1ccc(-c2ccccc2-c2nnn[nH]2)nc1 [Compound 175]		27	0	0			
CCCCn1nc(C2OCCCO2)nc1Cc1ccc(-c2ccccc2-c2nnn[nH]2)nc1 [Compound 180]		20	25	180			
CCCCn1nc(C2OCC(C)(C)CO2)nc1Cc1ccc(-c2ccccc2-c2nnn[nH]2)nc1 [Compound 181]		21	20	180			
CCCCc1cn(CCCC)c(=O)n1Cc1ccc(-c2ccccc2-c2nnn[nH]2)nc1 [Compound 185]		6.5	50	>180			
CCCc1cn(CCC)c(=O)n1Cc1ccc(-c2ccccc2-c2nnn[nH]2)nc1 [Compound 186]		38	25	180			
CCCCCc1cn(CCCC)c(=O)n1Cc1ccc(-c2ccccc2-c2nnn[nH]2)nc1 [Compound 190]		10	10	180			
CCCCn1cc(C2CCCCC2)n(Cc2ccc(-c3ccccc3-c3nnn[nH]3)nc2)c1=O [Compound 191]		81	10	180			
CCCCn1cc(CCC2CC2)n(Cc2ccc(-c3ccccc3-c3nnn[nH]3)nc2)c1=O [Compound 193]		11	10	180			
CCCCc1cn(CCC(C)C)c(=O)n1Cc1ccc(-c2ccccc2-c2nnn[nH]2)nc1 [Compound 198]		7.6	35	>180			
CCCCCn1cc(CCCC)n(Cc2ccc(-c3ccccc3-c3nnn[nH]3)nc2)c1=O [Compound 199]		10	60	>180			
CCCCc1cn(C(C)C)c(=O)n1Cc1ccc(-c2ccccc2-c2nnn[nH]2)nc1 [Compound 200]		20	45	>180			
CCCCc1cn(C(C)(C)C)c(=O)n1Cc1ccc(-c2ccccc2-c2nnn[nH]2)nc1 [Compound 201]		17	10	180			
CCCCc1cn(CC(C)(C)C)c(=O)n1Cc1ccc(-c2ccccc2-c2nnn[nH]2)nc1 [Compound 202]		12	65	>180			
CCCCc1cn(CCC(C)(C)C)c(=O)n1Cc1ccc(-c2ccccc2-c2nnn[nH]2)nc1 [Compound 203]		9.2	50	>180			
CCCCc1cn(CC(CC)CC)c(=O)n1Cc1ccc(-c2ccccc2-c2nnn[nH]2)nc1 [Compound 204]		16	75	>180			

SMILES	Assay C Inhibition ([1]; dose cell empty (dose not given)) [%]	IC50 [2] [nM]	inhibition at 3 mg/kg ([1]; Rattus norvegicus) [%]	Assay C Duration [1] [min]	inhibition at 10 mg/kg ([1]; Rattus norvegicus) [%]	inhibition at 30 mg/kg ([1]; Rattus norvegicus) [%]	inhibition at 100 mg/kg ([1]; Rattus norvegicus, dose 100 mg/kg) [%]
CCCCc1cn(C2CCCCC2)c(=O)n1Cc1ccc(-c2ccccc2-c2nnn[nH]2)nc1 [Compound 205]		20	40	>180			
CCCCc1cn(CCC2CC2)c(=O)n1Cc1ccc(-c2ccccc2-c2nnn[nH]2)nc1 [Compound 206]		5.4	30	>180			
CCCCc1cn(CC2CCCC2)c(=O)n1Cc1ccc(-c2ccccc2-c2nnn[nH]2)nc1 [Compound 208]		22	50	>180			
CCCCc1cn(CCc2cccs2)c(=O)n1Cc1ccc(-c2ccccc2-c2nnn[nH]2)nc1 [Compound 209]		5	25	>180			
CCCCc1cn(CCc2ccccc2)c(=O)n1Cc1ccc(-c2ccccc2-c2nnn[nH]2)nc1 [Compound 210]		3.6	15	180			
CCCCc1cn(CCC2CCCC2)c(=O)n1Cc1ccc(-c2ccccc2-c2nnn[nH]2)nc1 [Compound 211]		18	35	>180			
CCCCc1cn(CCC2=CCCC2)c(=O)n1Cc1ccc(-c2ccccc2-c2nnn[nH]2)nc1 [Compound 212]		23	15	180			
CCCCc1cn(-c2ccccc2Cl)c(=O)n1Cc1ccc(-c2ccccc2-c2nnn[nH]2)nc1 [Compound 216]		5.4	50	>180			
CCCCc1cn(-c2ccccc2C)c(=O)n1Cc1ccc(-c2ccccc2-c2nnn[nH]2)nc1 [Compound 217]		9.4	65	>180			
CCCCc1cn(-c2c(F)cccc2F)c(=O)n1Cc1ccc(-c2ccccc2-c2nnn[nH]2)nc1 [Compound 220]		7	75	120			
CCCCc1nc(CCCC)n(Cc2ccc(-c3ccccc3-c3nnn[nH]3)nc2)n1 [Compound 241]			40				
CCCCc1nc(-c2ccccc2OC)n(Cc2ccc(-c3ccccc3-c3nnn[nH]3)nc2)n1 [Compound 266]		290					
CCCCc1nc(-c2c(F)cccc2F)nn1Cc1ccc(-c2ccccc2-c2nnn[nH]2)nc1 [Compound 269]		9.7					
CCCCc1nc(-c2c(F)cccc2F)n(Cc2ccc(-c3ccccc3-c3nnn[nH]3)nc2)n1 [Compound 270]		21					
CCCCc1nc(CCCC)n(Cc2ccc(-c3ccccc3C(=O)O)cc2)n1 [compound 2]					95	98	
CCCCc1nc(CCCC)n(Cc2ccc(-c3ccccc3-c3nnn[nH]3)cc2)n1 [compound 3]					50	100	
CCCCc1nc(CCCC)n(Cc2ccc(-c3ccccc3C(=O)NNS(=O)(=O)C(F)(F)F)cc2)n1 [compound 5]						38	
CCCCc1nc(Cl)n(Cc2ccc(-c3ccccc3-c3nnn[nH]3)cc2)n1 [compound 9]						80	100
CCCCc1nc(C(F)(F)CCC)nn1Cc1ccc(-c2ccccc2-c2nnn[nH]2)cc1 [compound 10]			86			100	
